# Results published in PubChem BioAssay (NCI).
#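 96-well plates; 48 h exposure; 5 concentrations. Endpoints by linear interpolation between flanking doses. Not reached: highest tested concentration assigned. TGI: concentration producing complete growth inhibition.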
# Experiments:
# Assay in all cases: DTP human tumour cell line panel, 48 h
# [1] = test system: BT-549 breast
# [2] = test system: CAKI-1 renal
# [3] = test system: COLO 205 colon
# [4] = test system: HOP-62 NSCLC
# [5] = test system: HS 578T breast
# [6] = test system: HT29 colon
# [7] = test system: K-562 leukemia
# [8] = test system: KM12 colon
# [9] = test system: M14 melanoma
# [10] = test system: MDA-MB-231 breast
# [11] = test system: MDA-N
# [12] = test system: OVCAR-8 ovarian
# [13] = test system: PC-3 prostate
# [14] = test system: RXF 393 renal
# [15] = test system: SF-268 CNS
# [16] = test system: SK-MEL-2 melanoma
# [17] = test system: SN12C renal
# [18] = test system: SR leukemia
# [19] = test system: T-47D breast
Compound,TGI [1] [µM],TGI [2] [µM],TGI [3] [µM],TGI [4] [µM],TGI [5] [µM],TGI [6] [µM],TGI [7] [µM],TGI [8] [µM],TGI [9] [µM],TGI [10] [µM],TGI [11] [µM],TGI [12] [µM],TGI [13] [µM],TGI [14] [µM],TGI [15] [µM],TGI [16] [µM],TGI [17] [µM],TGI [18] [µM],TGI [19] [µM]
C#CCn1ncc2c(SC)ncnc21,> 100,> 100,> 100,> 100,> 100,> 100,> 100,> 100,> 100,> 100,> 100,> 100,> 100,> 100,> 100,> 100,> 100,> 100,> 100
O=C1CCCC2C(O)CCC[C@H]12 (some centres undefined),> 100,> 100,> 100,> 100,> 100,> 100,> 100,> 100,> 100,> 100,> 100,> 100,> 100,> 100,> 100,> 100,> 100,> 100,> 100
C1=Nc2ccc(cc2)N=Cc2ccc(cc2)OCc2cccc(n2)COc2ccc1cc2,> 100,> 100,> 100,> 100,> 100,> 100,> 100,> 100,> 100,> 100,> 100,> 100,> 100,> 100,> 100,> 100,> 100,> 100,> 100
COc1cc(-c2cc(=O)c3c(OC)c(OC)c(OC)cc3o2)c(OC)c(OC)c1OC,> 75,> 75,> 75,> 75,> 75,> 75,> 75,> 75,> 75,> 75,> 75,> 75,> 75,> 75,> 75,> 75,> 75,> 75,> 75
O=c1[nH]c2ccc(Cl)cc2c2oc(-c3ccccc3)nc12,> 100,39.7,> 100,43.6,41.2,> 100,> 100,> 100,> 100,43.4,> 100,24.8,> 100,71.8,> 100,57.5,41.8,62.3,50.4
CCCN1CC=C(c2cc(C(=O)OCC)[nH]c2-c2cc(C)no2)C1=O,> 100,> 100,> 100,> 100,> 100,> 100,> 100,> 100,> 100,> 100,> 100,> 100,> 100,> 100,> 100,> 100,> 100,> 100,> 100
CC(=O)NNc1nc(C)c(C(/C=C/c2ccc([N+](=O)[O-])cc2)=N/N)s1,> 100,> 100,> 100,> 100,> 100,> 100,> 100,> 100,> 100,95.4,> 100,> 100,> 100,> 100,> 100,> 100,> 100,> 100,> 100
Cc1n[nH]c(=O)n1C1CCCC1,> 100,> 100,> 100,> 100,> 100,> 100,> 100,> 100,> 100,> 100,> 100,> 100,> 100,> 100,> 100,–,> 100,> 100,> 100
CC(C)c1nc2cc(C(F)(F)F)ccc2[nH]c1=O,> 100,> 100,> 100,> 100,54.5,> 100,> 100,> 100,> 100,> 100,> 100,> 100,> 100,> 100,> 100,> 100,> 100,> 100,> 100
Nc1cc2c(nnn2C2OC(COCc3ccccc3)C(OCc3ccccc3)C2OCc2ccccc2)c(=O)[nH]1 (centres undefined),90.3,> 100,20.3,> 100,> 100,41.8,84.6,54.6,64.4,> 100,34,> 100,> 100,39.5,> 100,28.3,40.3,35.6,> 100
CN(C)Cc1cc(N=Nc2cccc(Cl)c2)ccc1O,34,61.1,38.5,22.9,29.4,33.7,12.8,22,25.5,36.7,23.9,28.5,38.1,20.8,40.3,–,95.3,54.5,34
COc1cc2c(c(O)c1OC)C(O)C1CCC(=O)N1C2c1cccc2ccccc12 (centres undefined),> 100,> 100,> 100,> 100,> 100,> 100,> 100,> 100,> 100,> 100,> 100,> 100,> 100,> 100,> 100,> 100,> 100,> 100,> 100
OC1(c2ccc(Cl)cc2)c2c(ccc3c2OCO3)C2=NCCN21 (centres undefined),> 100,> 100,33,> 100,76.7,91.5,70.6,43.9,30.8,91.8,87.4,> 100,> 100,86,> 100,43.4,> 100,53,> 100
O=C(c1ccco1)N(Cc1ccco1)C(=S)Nc1ccccc1,36.3,22.1,26.8,> 100,72,42.1,40.8,> 100,28.5,41.1,38.1,59.7,> 100,31.9,85.3,42.9,45.4,13.2,54.1
Cc1cc(NS(=O)(=O)c2ccc(NC(=O)c3ccc4[nH]c5ccccc5c(=O)c4c3)cc2)no1,> 100,> 100,> 100,> 100,> 100,> 100,> 100,> 100,> 100,> 100,> 100,> 100,> 100,90.7,> 100,> 100,> 100,> 100,> 100
CC(=O)c1c(SCCN2CCCC2)n(-c2ccccc2)c(=S)n(-c2ccccc2)c1=O,28.6,10.2,3.48,55,54.2,20.7,> 26.7,> 55.7,6.63,23.4,19.9,23.5,10.8,5.63,33.2,50.8,20.5,> 100,5.42
Cn1c(N)c(C(N)=O)[nH]c1=S,> 100,–,> 100,> 100,> 100,> 100,> 100,> 100,> 100,> 100,> 100,> 100,> 100,> 100,> 100,> 100,> 100,> 100,> 100
CC(C)(C)n1c(=O)[nH]n(C2NN=Cc3cccc4cccc2c34)c1=O (centres undefined),> 100,> 100,74.9,–,> 100,45.9,40.7,> 100,> 100,> 100,59.4,> 100,> 100,72.2,> 100,> 100,> 100,37.4,> 100
CN(C)c1ccc(/C=C(\NC(=O)c2ccccc2)C(=O)NCC(=O)O)cc1,> 100,> 100,> 100,> 100,> 100,> 100,> 100,> 100,> 100,> 100,> 100,> 100,> 100,> 100,> 100,> 100,> 100,> 100,> 100
O=Cc1c2ccccc2n2ccc3c4ccccc4[nH]c3c12,> 10,> 10,> 10,> 10,> 10,> 10,> 10,> 10,> 10,> 10,> 10,> 10,> 10,> 10,> 10,> 10,> 10,> 10,> 10
Cn1c(-c2cccs2)cc(-c2ccccc2)c1-c1cccs1,> 100,> 100,> 100,51.5,> 100,> 100,> 100,> 100,> 100,> 100,> 100,> 100,> 100,> 100,> 100,> 100,> 100,> 100,> 100
O=C1CS(=O)(=O)C(c2cccc(Oc3ccccc3)c2)N1c1cccc(Cl)c1 (centres undefined),93.2,83.5,41.1,> 100,97,> 100,52.1,> 100,92.2,> 100,49.2,82.8,> 100,52.7,76.7,33.2,> 100,41.2,> 100
